Results from patent US11247001B2, “Delivery device with cantilever structure and associated method of use” (De Motu Cordis Pty Ltd, priority 2016, dated 2022).

Test: Particle deagglomeration: particle size distribution of the dose of dry powder emitted by the delivery device
Format: physicochemical
Settings: for emitted dose: dry powder emitted from delivery device comprising a container for storing dry powder (FIG. 28, FIG. 29); for deagglomerated to the typical inhalable range: share of dry powder, delivery device with container
Excerpt: The performance of the delivery device can be measured by how closely the particle size distribution of the emitted powder approaches the original distribution.
An embodiment of the device that stored Mannitol on a corrugated reed was also compared to the embodiment of the device that stored and dispensed Mannitol from a blister.

| Fine Particle Fraction < 5 um (%) (Table 2, performance of device, N = 8, 68% CI) | FPF (device that dispensed from a blister) | FPF (device that dispensed from the reed (corrugated reed)) | FPF (device with a reed) | Fine Particle Fraction < 5 um (%) (device with reed, N = 10, 68% CI) | FPF (device without a reed) | Fine Particle Fraction < 5 um (%) (device without reed, same flow conditions, N = 10, 68% CI) | emitted dose | Fine Particle Fraction < 5 um (%) (powder stored in and dispensed from blister, N = 10, 68% CI) | Fine Particle Fraction < 5 um (%) (powder stored in and dispensed from corrugated reed, N = 5, 68% CI) | deagglomerated to the typical inhalable range | Compound |
| --- | --- | --- | --- | --- | --- | --- | --- | --- | --- | --- | --- |
| 48.0-60.9% | about 43% | about 44% | about 43% | 38.9-47.4% | about 31% | 26.8-35.1% | 75.3-86.1% | 38.9-47.4% | 40.6-48.2% | About 50% | OC[C@@H](O)[C@@H](O)[C@H](O)[C@H](O)CO [Mannitol] |
|  |  |  |  |  |  |  | 72.4-92.0% |  |  | about 35% | CNCC(O)c1ccc(O)c(O)c1 (stereo not shown) [Adrenaline] |
